Consider 21 compounds from US10357493B2, “Metalloenzyme inhibitor compounds” (Selenity Therapeutics (Bermuda), Ltd., priority 2017, dated 2019).

The target in experiment [1] is HDAC1 (Homo sapiens (Human), UniProt Q13547). As to the kind of experiment: HDAC1 enzymatic assay. The format is biochemical. The note with it: read-out: Human HDAC1 IC50. In short, it runs like this:
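HDAC1 activity was measured in duplicate 50 μl reactions containing 0.5 ng HDAC1, 10 uM of HDAC substrate, and test compound in buffer (50 mM Tris-HCl, pH 7.4, 137 mM NaCl, 2.7 mM KCl, 0.05% Tween 20, 5 μg BSA) with 1% DMSO, incubated 17 hours at room temperature. HDAC Developer was then added for 20 minutes and fluorescence read at 360/460 nm.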

Experiment [2] has as its target HDAC6 (Homo sapiens (Human), UniProt Q9UBN7). Description: HDAC6 enzymatic assay. It counts as biochemical. Particulars: read-out: Human HDAC6 IC50. The procedure, abridged: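 Human HDAC6 activity was measured in duplicate 50 μl reactions holding 2 ng HDAC6, 10 uM of HDAC substrate and test compound in HDAC assay buffer (50 mM Tris-HCl, pH 7.4, 137 mM NaCl, 2.7 mM KCl, 0.05% Tween 20, 5 μg BSA) with 1% DMSO, for 17 hours at room temperature. HDAC Developer was added for 20 minutes before reading fluorescence at 360/460 nm.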

Sequence of HDAC1 (Q13547 whole entry): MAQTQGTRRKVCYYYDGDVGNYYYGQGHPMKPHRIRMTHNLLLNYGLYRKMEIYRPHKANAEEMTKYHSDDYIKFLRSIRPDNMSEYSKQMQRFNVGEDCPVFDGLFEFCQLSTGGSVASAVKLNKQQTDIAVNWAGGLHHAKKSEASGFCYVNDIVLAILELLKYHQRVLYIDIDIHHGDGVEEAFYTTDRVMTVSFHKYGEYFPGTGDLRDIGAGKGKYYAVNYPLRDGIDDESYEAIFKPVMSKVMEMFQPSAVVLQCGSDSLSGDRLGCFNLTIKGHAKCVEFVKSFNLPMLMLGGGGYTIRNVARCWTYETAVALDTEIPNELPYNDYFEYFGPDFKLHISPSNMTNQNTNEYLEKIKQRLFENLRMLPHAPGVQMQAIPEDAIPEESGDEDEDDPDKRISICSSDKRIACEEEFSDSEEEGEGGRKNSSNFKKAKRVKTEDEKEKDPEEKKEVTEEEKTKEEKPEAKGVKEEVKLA
Sequence of HDAC6 (Q9UBN7 whole entry): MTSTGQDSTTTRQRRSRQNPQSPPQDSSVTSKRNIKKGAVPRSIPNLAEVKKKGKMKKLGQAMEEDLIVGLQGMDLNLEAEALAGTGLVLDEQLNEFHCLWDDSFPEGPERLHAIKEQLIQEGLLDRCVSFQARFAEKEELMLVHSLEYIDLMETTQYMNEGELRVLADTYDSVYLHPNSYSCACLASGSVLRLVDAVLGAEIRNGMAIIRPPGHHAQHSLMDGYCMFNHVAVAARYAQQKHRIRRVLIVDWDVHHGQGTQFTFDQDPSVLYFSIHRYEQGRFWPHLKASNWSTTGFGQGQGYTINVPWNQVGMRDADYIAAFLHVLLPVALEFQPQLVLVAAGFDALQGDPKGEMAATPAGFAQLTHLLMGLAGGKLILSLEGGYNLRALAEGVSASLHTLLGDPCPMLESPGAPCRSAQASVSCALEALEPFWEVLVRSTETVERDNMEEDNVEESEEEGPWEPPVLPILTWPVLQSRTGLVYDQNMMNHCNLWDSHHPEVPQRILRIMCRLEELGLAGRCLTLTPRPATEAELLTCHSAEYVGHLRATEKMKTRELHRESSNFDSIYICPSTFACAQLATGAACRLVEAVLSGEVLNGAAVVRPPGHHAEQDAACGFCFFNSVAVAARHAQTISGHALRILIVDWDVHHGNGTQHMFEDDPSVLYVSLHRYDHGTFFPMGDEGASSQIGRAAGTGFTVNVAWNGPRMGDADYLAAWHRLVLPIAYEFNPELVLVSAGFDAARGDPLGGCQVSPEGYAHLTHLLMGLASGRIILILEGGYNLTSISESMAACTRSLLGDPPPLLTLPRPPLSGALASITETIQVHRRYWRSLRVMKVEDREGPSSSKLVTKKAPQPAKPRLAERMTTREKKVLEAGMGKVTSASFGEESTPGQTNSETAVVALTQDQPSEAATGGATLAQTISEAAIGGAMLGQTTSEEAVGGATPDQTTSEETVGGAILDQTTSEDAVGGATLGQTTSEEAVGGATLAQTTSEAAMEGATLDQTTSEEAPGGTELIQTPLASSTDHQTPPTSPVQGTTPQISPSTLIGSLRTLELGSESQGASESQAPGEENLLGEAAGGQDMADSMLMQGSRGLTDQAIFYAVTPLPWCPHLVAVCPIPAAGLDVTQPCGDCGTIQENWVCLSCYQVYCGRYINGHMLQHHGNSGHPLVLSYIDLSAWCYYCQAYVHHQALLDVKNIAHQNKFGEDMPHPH

A word on the IC50: it is the concentration needed to halve the response being measured. Turning to `Fc1ccc(C(Cn2cc(C(F)(F)F)cn2)Nc2ncc(-c3nnc(C(F)F)o3)cn2)cc1` (single isomer, unassigned) [176(+), 5-(5-(difluoromethyl)-1,3,4-oxadiazol-2-yl)-N-(1-(4-fluorophenyl)-2-(4-(trifluoromethyl)-1H-pyrazol-1-yl)ethyl)pyrimidin-2-amine], the IC50 in experiment [1] was greater than 30 µM; in experiment [2], 0.16 µM.
In the case of `COc1ccc(C2(Nc3ncc(-c4nnc(C(F)(F)F)o4)cn3)CC2)cc1` [Example 42, N-(1-(4-methoxyphenyl)cyclopropyl)-5-(5-(trifluoromethyl)-1,3,4-oxadiazol-2-yl)pyrimidin-2-amine], the values for the IC50 in experiment [1] and in experiment [2] were greater than 30 µM and 0.25 µM, respectively.
On the same counts, the results for `FC(F)c1nnc(-c2cnc(NC3(c4cccc(Cl)c4)CC3)nc2)o1` [Example 51, N-(1-(3-chlorophenyl)cyclopropyl)-5-(5-(difluoromethyl)-1,3,4-oxadiazol-2-yl)pyrimidin-2-amine] are greater than 30 µM and 0.015 µM.
As to `N#Cc1ccc(C2(Nc3ncc(-c4nnc(C(F)F)o4)cn3)CC2)cn1` [Example 25, 5-(1-((5-(5-(difluoromethyl)-1,3,4-oxadiazol-2-yl)pyrimidin-2-yl)amino)cyclopropyl)picolinonitrile], the IC50 in experiment [1] was greater than 30 µM; in experiment [2], greater than 1 µM.
On the same counts, the results for `CS(=O)(=O)NCc1ccc(C2(Nc3ncc(-c4nnc(C(F)F)o4)cn3)CC2)cc1` [Example 69, N-(4-(1-((5-(5-(difluoromethyl)-1,3,4-oxadiazol-2-yl)pyrimidin-2-yl)amino)cyclopropyl)benzyl) methanesulfonamide] are greater than 30 µM and 0.13 µM.
On the same counts, the results for `Fc1cccc(C2(Nc3ncc(-c4nnc(C(F)F)o4)cn3)CC2)c1F` [Example 60, 5-(5-(difluoromethyl)-1,3,4-oxadiazol-2-yl)-N-(1-(2,3-difluorophenyl)cyclopropyl) pyrimidin-2-amine] are greater than 30 µM and 0.022 µM.
For `FC(F)c1nnc(-c2cnc(OC3(c4ccccc4)CC3)nc2)o1` [Example 12, 2-(difluoromethyl)-5-(2-(1-phenylcyclopropoxy)pyrimidin-5-yl)-1,3,4-oxadiazole] the same measures were greater than 30 µM and 0.21 µM.
On to `CC(C)(Nc1ncc(-c2nnc(C(F)F)o2)cn1)c1c(F)cccc1F` [Example 98, 5-(5-(difluoromethyl)-1,3,4-oxadiazol-2-yl)-N-(2-(2,6-difluorophenyl)propan-2-yl)pyrimidin-2-amine], for which the IC50 in experiment [1] was greater than 30 µM; in experiment [2], 0.016 µM.
For `O=S(=O)(C1CC1)N(CC(Nc1ncc(-c2nnc(C(F)F)o2)cn1)c1ccc(OC(F)F)cc1F)CC(F)(F)F` (stereo not drawn) [152(+), N-(2-(4-(difluoromethoxy)-2-fluorophenyl)-2-((5-(5-(difluoromethyl)-1,3,4-oxadiazol-2-yl)pyrimidin-2-yl)amino)ethyl)-N-(2,2,2-trifluoroethyl)cyclopropanesulfonamide] the same measures were greater than 30 µM and 0.28 µM.
On the same counts, the results for `N#Cc1ccc(C2(Nc3ncc(-c4nnc(C(F)F)o4)cn3)CC2)cc1` [Example 48, 4-(1-((5-(5-(difluoromethyl)-1,3,4-oxadiazol-2-yl)pyrimidin-2-yl)amino)cyclopropyl) benzonitrile] are greater than 30 µM and 0.046 µM.
For `O=S(=O)(C1CC1)N(CC(Nc1ncc(-c2nnc(C(F)F)o2)cn1)c1ccc(F)cc1)CC(F)(F)F` (single isomer, unassigned) [165(+), N-(2-((5-(5-(difluoromethyl)-1,3,4-oxadiazol-2-yl)pyrimidin-2-yl)amino)-2-(4-fluorophenyl)ethyl)-N-(2,2,2-trifluoroethyl)cyclopropanesulfonamide] the same measures were greater than 30 µM and 0.11 µM.
On to `Cc1cccc(C2(Nc3ncc(-c4nnc(C(F)F)o4)cn3)CC2)c1Cl` [Example 77, N-(1-(2-chloro-3-methylphenyl)cyclopropyl)-5-(5-(difluoromethyl)-1,3,4-oxadiazol-2-yl)pyrimidin-2-amine], for which the IC50 is greater than 30 µM in experiment [1] and 0.028 µM in experiment [2].
For `N#Cc1cc(C2(Nc3ncc(-c4nnc(C(F)F)o4)cn3)CC2)ccn1` [Example 83, 4-(1-((5-(5-(difluoromethyl)-1,3,4-oxadiazol-2-yl)pyrimidin-2-yl)amino)cyclopropyl)picolinonitrile] the same measures were greater than 30 µM and 0.16 µM.
For `CCCC(Nc1ncc(-c2nnc(C(F)F)o2)cn1)c1ccc(F)cc1` (stereo not drawn) [Example 23, 5-(5-(difluoromethyl)-1,3,4-oxadiazol-2-yl)-N-(1-(4-fluorophenyl)butyl)pyrimidin-2-amine], the results for the concentration for half-maximal inhibition (IC50) in experiment [1] and in experiment [2] were greater than 30 µM and 0.1 µM, respectively.
On the same counts, the results for `COc1cccc(C2(Nc3ncc(-c4nnc(C(F)F)o4)cn3)CC2)c1` [Example 43, 5-(5-(difluoromethyl)-1,3,4-oxadiazol-2-yl)-N-(1-(3-methoxyphenyl)cyclopropyl)pyrimidin-2-amine] are greater than 30 µM and 0.039 µM.
In the case of `FC(F)c1nnc(-c2cnc(NC3(c4ccccc4Cl)CC3)nc2)o1` [Example 52, N-(1-(2-chlorophenyl)cyclopropyl)-5-(5-(difluoromethyl)-1,3,4-oxadiazol-2-yl)pyrimidin-2-amine], the values for the IC50 in experiment [1] and in experiment [2] were greater than 30 µM and 0.006 µM, respectively.
On the same counts, the results for `CS(=O)(=O)NCC(Nc1ncc(-c2nnc(C(F)F)o2)cn1)C1CC1` (single isomer, unassigned) [123(+), N-(2-cyclopropyl-2-((5-(5-(difluoromethyl)-1,3,4-oxadiazol-2-yl)pyrimidin-2-yl)amino)ethyl)methanesulfonamide] are greater than 30 µM and 1.1 µM.
On the same counts, the results for `Fc1ccc(Cl)c(C2(Nc3ncc(-c4nnc(C(F)F)o4)cn3)CC2)c1` [Example 80, N-(1-(2-chloro-5-fluorophenyl)cyclopropyl)-5-(5-(difluoromethyl)-1,3,4-oxadiazol-2-yl)pyrimidin-2-amine] are greater than 30 µM and 0.023 µM.
On the same counts, the results for `FC(F)c1nnc(-c2cnc(NC3(c4ccc(OCC(F)(F)F)cc4)CC3)nc2)o1` [Example 68, 5-(5-(difluoromethyl)-1,3,4-oxadiazol-2-yl)-N-(1-(4-(2,2,2-trifluoroethoxy)phenyl)cyclopropyl) pyrimidin-2-amine] are greater than 30 µM and 0.1 µM.
As for `CS(=O)(=O)Nc1ccc(C(Nc2ncc(-c3nnc(C(F)F)o3)cn2)c2ccc(F)cc2)cc1` (stereo not drawn) [Example 129, N-(4-(((5-(5-(difluoromethyl)-1,3,4-oxadiazol-2-yl)pyrimidin-2-yl)amino)(4-fluorophenyl)methyl)phenyl)methanesulfonamide], the IC50 in experiment [1] was greater than 30 µM; in experiment [2], 0.25 µM.
On the same counts, the results for `Fc1ccc(C(Cn2cc(C(F)(F)F)cn2)Nc2ncc(-c3nnc(C(F)F)o3)cn2)cc1` (single isomer, unassigned) [176(−), 5-(5-(difluoromethyl)-1,3,4-oxadiazol-2-yl)-N-(1-(4-fluorophenyl)-2-(4-(trifluoromethyl)-1H-pyrazol-1-yl)ethyl)pyrimidin-2-amine] are greater than 30 µM and 1.5 µM.
